Laboratory results: ChEMBL document CHEMBL1201862, “PubChem BioAssay data set” (2004)
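Five compound concentrations were applied to cells in 96-well plates for 48 hours; endpoints were derived by simple linear interpolation of the resulting dose-response curve. GI50 is the concentration that inhibits growth by half.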 The source made the active and inactive calls. Cut-off read from the data, not from the text of the source: active = GI50 up to about 1.1 µM and inactive = higher. Non-standard residues stand in square brackets, D forms with d. Residues, ends and D or L forms follow the SMILES beside them. ξ: configuration not given here. *: point of attachment. ξNMeF = CNC(Cc1ccccc1)C(=O)O; NMeV = CN[C@H](C(=O)O)C(C)C; Boc = CC(C)(C)OC(=O)*; OBn = c1ccc(CO*)cc1

Tests used:
Experiment in all cases: inhibition of tumour cell growth, NCI panel, 48 h
DMS-114 = test system: DMS-114
DMS-273 = test system: DMS-273
HCC 2998 = test system: HCC 2998
HL-60 = test system: HL-60
HOP-92 = test system: HOP-92
K562 = test system: K562
LXFL 529 = test system: LXFL 529
MOLT-4 = test system: MOLT-4
NCI-H460 = test system: NCI-H460
SF-539 = test system: SF-539
SK-MEL-28 = test system: SK-MEL-28
SK-MEL-5 = test system: SK-MEL-5
U-251 = test system: U-251
UACC-257 = test system: UACC-257
UACC-62 = test system: UACC-62
UO-31 = test system: UO-31
OVCAR-4 = test system: OVCAR-4

Row | SMILES | GI50 (DMS-114) | GI50 (DMS-273) | GI50 (HCC 2998) | GI50 (HL-60) | GI50 (HOP-92) | GI50 (K562) | GI50 (LXFL 529) | GI50 (MOLT-4) | GI50 (NCI-H460) | GI50 (SF-539) | GI50 (SK-MEL-28) | GI50 (SK-MEL-5) | GI50 (U-251) | GI50 (UACC-257) | GI50 (UACC-62) | GI50 (UO-31) | GI50 (OVCAR-4)
1 | CC(C)[C@@H](C(=O)N(C)[C@H](C(=O)N1CCC[C@H]1C(=O)OCc1ccccc1)C(C)C)N(C)C(=O)C(Cc1ccccc1)N(C)C(=O)[C@H](NC(=O)OC(C)(C)C)C(C)C (stereo partly drawn) (Boc-[dV][ξNMeF][NMeV][NMeV]P-OBn) | 20.6 µM (inactive) | > 31.6 µM (inactive) | > 10 µM (inactive) | 19 µM (inactive) | 8.34 µM (inactive) | 13.5 µM (inactive) | 42.9 µM (inactive) | 10.7 µM (inactive) | > 31.6 µM (inactive) | > 31.6 µM (inactive) | > 31.6 µM (inactive) | 15.6 µM (inactive) | > 31.6 µM (inactive) | > 31.6 µM (inactive) | > 31.6 µM (inactive) | > 31.6 µM (inactive) | –
2 | COP1(=O)Oc2ccccc2C(=O)C(C(F)(F)F)(C(F)(F)F)O1 (stereo not drawn) | > 100 µM (inactive) | > 100 µM (inactive) | 0.577 µM (active) | > 100 µM (inactive) | 56.8 µM (inactive) | > 100 µM (inactive) | > 100 µM (inactive) | > 100 µM (inactive) | > 100 µM (inactive) | > 100 µM (inactive) | > 100 µM (inactive) | > 100 µM (inactive) | > 100 µM (inactive) | > 100 µM (inactive) | > 100 µM (inactive) | > 100 µM (inactive) | > 100 µM (inactive)
3 | COP(=O)(OC)C(=O)N1N(c2ccc([N+](=O)[O-])cc2)C(=O)C(C)NC1(NNc1ccc([N+](=O)[O-])cc1)P(=O)(OC)OC (stereo not drawn) | > 100 µM (inactive) | > 100 µM (inactive) | > 100 µM (inactive) | 64.6 µM (inactive) | > 100 µM (inactive) | > 100 µM (inactive) | 57.8 µM (inactive) | > 100 µM (inactive) | > 100 µM (inactive) | > 100 µM (inactive) | > 100 µM (inactive) | > 100 µM (inactive) | > 100 µM (inactive) | > 100 µM (inactive) | > 100 µM (inactive) | > 100 µM (inactive) | > 100 µM (inactive)
4 | Brc1ccc2c(c1)C1C(CO2)C(c2ccccc2)=NN1c1ccccc1 (stereo not drawn) | > 100 µM (inactive) | > 100 µM (inactive) | > 100 µM (inactive) | 90.8 µM (inactive) | 57.3 µM (inactive) | 78.9 µM (inactive) | > 100 µM (inactive) | > 100 µM (inactive) | > 100 µM (inactive) | – | > 100 µM (inactive) | – | > 100 µM (inactive) | > 100 µM (inactive) | – | > 100 µM (inactive) | –
5 | O=c1[nH]c2c(O)cccc2c2cc3c(c(O)c12)OCO3 [NARCIPRIMINE] | 19.1 µM (inactive) | 18.7 µM (inactive) | 19.5 µM (inactive) | 6.44 µM (inactive) | 13.4 µM (inactive) | 17.5 µM (inactive) | 18.3 µM (inactive) | 16.8 µM (inactive) | 14.6 µM (inactive) | 18 µM (inactive) | – | 17.1 µM (inactive) | 16 µM (inactive) | 19.7 µM (inactive) | 18.3 µM (inactive) | 17.1 µM (inactive) | 11.9 µM (inactive)
6 | CCOC(=O)NC(=O)c1cn(CCCCCOC(=O)NCCCCCCNC(=O)OCCCCCn2cc(C(=O)NC(=O)OCC)c(=O)[nH]c2=O)c(=O)[nH]c1=O | > 100 µM (inactive) | > 100 µM (inactive) | > 100 µM (inactive) | > 100 µM (inactive) | – | > 100 µM (inactive) | > 100 µM (inactive) | > 100 µM (inactive) | > 100 µM (inactive) | > 100 µM (inactive) | > 100 µM (inactive) | > 100 µM (inactive) | > 100 µM (inactive) | > 100 µM (inactive) | > 100 µM (inactive) | > 100 µM (inactive) | > 100 µM (inactive)
7 | COC(=O)C(=O)C(C(=O)C(=O)Nc1ccc(Cl)cc1C)c1nc2ccc(C(=O)c3ccccc3)cc2nc1O (stereo not drawn) | 36 µM (inactive) | 63.4 µM (inactive) | 98.9 µM (inactive) | 96.6 µM (inactive) | 49.8 µM (inactive) | 29 µM (inactive) | 65.2 µM (inactive) | 51.1 µM (inactive) | > 100 µM (inactive) | 58.5 µM (inactive) | – | – | > 100 µM (inactive) | 97.9 µM (inactive) | 61.9 µM (inactive) | 49.1 µM (inactive) | > 100 µM (inactive)
8 | Cc1nc2nn(Cc3ccccc3)cc2c(=O)o1 | > 100 µM (inactive) | > 100 µM (inactive) | > 100 µM (inactive) | > 100 µM (inactive) | – | > 100 µM (inactive) | > 100 µM (inactive) | > 100 µM (inactive) | > 100 µM (inactive) | > 100 µM (inactive) | – | > 100 µM (inactive) | > 100 µM (inactive) | > 100 µM (inactive) | > 100 µM (inactive) | > 100 µM (inactive) | –
9 | O=C(N/N=C/c1ccccc1O)N/N=C/c1ccccc1O | > 100 µM (inactive) | > 100 µM (inactive) | > 100 µM (inactive) | > 100 µM (inactive) | > 100 µM (inactive) | > 100 µM (inactive) | > 100 µM (inactive) | > 100 µM (inactive) | > 100 µM (inactive) | > 100 µM (inactive) | > 100 µM (inactive) | – | > 100 µM (inactive) | > 100 µM (inactive) | > 100 µM (inactive) | > 100 µM (inactive) | > 100 µM (inactive)
10 | CC1c2c(Cl)nc3ccccc3c2Oc2c1c(Cl)nc1ccccc21 | 66.1 µM (inactive) | 53.2 µM (inactive) | > 100 µM (inactive) | 29.6 µM (inactive) | 46.5 µM (inactive) | 46.8 µM (inactive) | 53.5 µM (inactive) | 31.2 µM (inactive) | > 100 µM (inactive) | > 100 µM (inactive) | > 100 µM (inactive) | 30.3 µM (inactive) | 61.9 µM (inactive) | > 100 µM (inactive) | – | 65 µM (inactive) | –
11 | CC1=C(/C=C/C(C)=C/C=C/C(C)=C/C=C/C=C(C)/C=C/C=C(C)/C=C/C=C(C)/C=C/C=C(\C)C(=O)O)C(C)(C)CCC1 | > 100 µM (inactive) | > 100 µM (inactive) | – | – | – | > 100 µM (inactive) | > 100 µM (inactive) | > 100 µM (inactive) | > 100 µM (inactive) | > 100 µM (inactive) | > 100 µM (inactive) | > 100 µM (inactive) | > 100 µM (inactive) | > 100 µM (inactive) | > 100 µM (inactive) | > 100 µM (inactive) | > 100 µM (inactive)
12 | CC(=O)c1ccc(NC(=O)C(=O)CC(=O)c2sc(-n3nc(-c4ccccc4)cc3-c3ccccc3)nc2C)cc1 | > 100 µM (inactive) | > 100 µM (inactive) | > 100 µM (inactive) | > 100 µM (inactive) | – | > 100 µM (inactive) | > 100 µM (inactive) | > 100 µM (inactive) | > 100 µM (inactive) | > 100 µM (inactive) | – | – | > 100 µM (inactive) | > 100 µM (inactive) | > 100 µM (inactive) | > 100 µM (inactive) | > 100 µM (inactive)
13 | O=C(NO)c1ccc(O)c(O)c1 | 55.1 µM (inactive) | 27.8 µM (inactive) | > 100 µM (inactive) | 9.77 µM (inactive) | > 100 µM (inactive) | 26.5 µM (inactive) | > 100 µM (inactive) | 93.3 µM (inactive) | 70.3 µM (inactive) | > 100 µM (inactive) | > 100 µM (inactive) | > 100 µM (inactive) | > 100 µM (inactive) | > 100 µM (inactive) | > 100 µM (inactive) | > 100 µM (inactive) | > 100 µM (inactive)
14 | CC(=O)OCC1OC(n2c(-c3ccc(C)cc3)cc(-c3ccccc3)c(C#N)c2=O)C(OC(C)=O)C(OC(C)=O)C1OC(C)=O (stereo not drawn) | > 100 µM (inactive) | – | > 100 µM (inactive) | 48.9 µM (inactive) | > 100 µM (inactive) | > 100 µM (inactive) | > 100 µM (inactive) | > 100 µM (inactive) | > 100 µM (inactive) | > 100 µM (inactive) | > 100 µM (inactive) | > 100 µM (inactive) | > 100 µM (inactive) | > 100 µM (inactive) | > 100 µM (inactive) | > 100 µM (inactive) | > 100 µM (inactive)
15 | O=C1c2ccccc2C(=O)C2C1C1C(=O)c3ccccc3C(=O)C21 (stereo not drawn) | > 100 µM (inactive) | > 100 µM (inactive) | 51.6 µM (inactive) | 58.9 µM (inactive) | > 100 µM (inactive) | > 100 µM (inactive) | > 100 µM (inactive) | – | > 100 µM (inactive) | > 100 µM (inactive) | > 100 µM (inactive) | 32.6 µM (inactive) | > 100 µM (inactive) | > 100 µM (inactive) | > 100 µM (inactive) | > 100 µM (inactive) | > 100 µM (inactive)
16 | C[C@]12CC[C@H](OC3CCCCO3)CC1=CC[C@@H]1C2CC[C@]2(C)/C(=N/O)CCC12 (stereo partly drawn) | 17.5 µM (inactive) | 17.5 µM (inactive) | 17.5 µM (inactive) | – | 23.9 µM (inactive) | 14.4 µM (inactive) | 16.6 µM (inactive) | 10.9 µM (inactive) | 18.8 µM (inactive) | 47.1 µM (inactive) | 21.3 µM (inactive) | 88.9 µM (inactive) | 19.6 µM (inactive) | 30.3 µM (inactive) | 42.7 µM (inactive) | 39.1 µM (inactive) | 16.4 µM (inactive)
